Source: PMC13586308, “Cell type–selective targeting by heterobifunctional protein binders via in-cell enrichment” (Nature Communications, 2026)
Read-outs that look alike come from different tables or passages of the source.

How the values were obtained:
FKBP12 [1] = biological target: T1, FKBP12 (Homo sapiens, UniProt P62942); assay: competitive fluorescence polarization assay, binding to FKBP12; conditions: competitive FP assay
BRD4^BD2 = biological target: T2, BRD4^BD2 (Homo sapiens, UniProt O60885); assay: competitive fluorescence polarization assay, BRD4 BD2 -/+ presenter protein; format: binding; conditions: for α BRD4^BD2 (binding cooperativity factor): ratio of binding in absence or presence of FKBP12
T2 construct: to the isolated BD1 and BD2 domains of BRD2, BRD3 and BRD4

FKBP12 [2] = biological target: T1, FKBP12; assay: NanoBRET FKBP12 in intact HEK293 cells; format: cell-based
BRD4^BD1 = biological target: T3, BRD4^BD1 (Homo sapiens, UniProt O60885); assay: competitive fluorescence polarization assay, BRD4 BD1 -/+ presenter protein; format: binding; conditions: for α BRD4^BD1 (binding cooperativity factor): ratio of binding in absence or presence of FKBP12
T3 construct: to the isolated BD1 and BD2 domains of BRD2, BRD3 and BRD4

BRD4 = biological target: T4, BRD4 (Homo sapiens, UniProt O60885); assay: NanoBRET BRD4, transient BRD4-NanoLuc in HEK293T cells; format: cell-based; conditions: intact HEK293 cells
T4 construct: full-length BRD4 fused to NanoLuc at N terminus; expressed in transfected cells; host or cells: HEK293T
Experimental: The NanoBRET assay was performed as described previously[26],[39]. To study BRD4 engagement, we employed two models: cells stably expressing BRD4-NanoLuc and cells with transient BRD4-NanoLuc expression. For stable cell lines, the coding sequence of human BRD4 (Isoform B) was fused in-frame to NanoLuc luciferase under the control of the human ubiquitin C (UbC) promoter, with left and right homology arms targeting the AAVS1 locus in intron 1 of the PPP1R12C gene to facilitate genomic integration. PC3 prostate cancer cells were transfected with this construct and vectors expressing Cas9 and an sgRNA targeting the AAVS1 locus using Lipofectamine 3000 (Invitrogen). Successful integrands were selected with blasticidin. Expression of the fusion protein was confirmed by western blot. For transient experiments, full-length BRD4 fused to NanoLuc at N terminus, was cloned into an expression plasmid and transfected into HEK293T cells using FuGENE HD (Promega, E2312), with protein expression allowed for 20 h. Serially diluted inhibitors and BRD Tracer-02 (Promega, TracerDB ID: T000022) at the Tracer KD concentration (from TracerDB)[40] were dispensed into white 384-well plates (Greiner 781207) using an ECHO 550 acoustic dispenser (Labcyte). The cells were trypsinized, resuspended in Opti-MEM without phenol red (Life Technologies), and seeded at 2 × 10^5 cells/mL. After equilibration for 2 h at 37 °C/5% CO₂ following compound treatment, the NanoBRET® NanoGlo Substrate + Extracellular NanoLuc® Inhibitor (Promega, N2162) was added according to the manufacturer’s protocol, and filtered luminescence was measured on a PHERAstar plate reader (BMG Labtech) using a donor (450 nm BP) and acceptor (610 nm LP) filter pair. Competitive displacement data were analyzed using GraphPad Prism 9 with a normalized 3-parameter curve fit: Y = 100/(1 + 10^(X − log IC₅₀)). For BRET measurements after FKBP12 knockdown in stably expressing BRD4 Nano-Luc reporter cell line, 10 nL/per well of the FKBP12 PROTAC was pipetted to each well using Labcyte to achieve the final concentration of 200 nM and the plated cells were incubated over-night at 37 °C and 5% CO2. BRET measurements were performed as outlined above.

[3] = absence of FKBP12, 2 nM JQ1-FL tracer, read-out: Binding to BRD4^BD2 - FKBP12 Kd
[4] = presence of 15 µM FKBP12, read-out: Binding to BRD4^BD2 + FKBP12 Kd (converted)
[5] = absence of FKBP12, 2 nM JQ1-FL tracer, read-out: Binding to BRD4^BD1 - FKBP12 Kd
[6] = presence of 15 µM FKBP12, read-out: Binding to BRD4^BD1 + FKBP12 Kd (converted)

T1 sequence (P62942 whole entry): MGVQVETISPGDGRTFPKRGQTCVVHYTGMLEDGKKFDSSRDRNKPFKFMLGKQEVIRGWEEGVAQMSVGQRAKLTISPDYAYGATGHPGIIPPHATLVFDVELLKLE

Row | SMILES | Kd (FKBP12 [1]) [nM] | Kd (BRD4^BD2; [3]) [nM] | Kd (BRD4^BD2; [4]) [nM] | α BRD4^BD2 (binding cooperativity factor) (BRD4^BD2) | IC50 (FKBP12 [2]) [nM] | Kd (BRD4^BD1; [5]) [nM] | Kd (BRD4^BD1; [6]) [nM] | α BRD4^BD1 (binding cooperativity factor) (BRD4^BD1) | IC50 (BRD4) [nM]
1 | C=CC1CN(Cc2cn(CCOCCOCCNC(=O)CC3N=C(c4ccc(Cl)cc4)c4c(sc(C)c4C)-n4c(C)nnc43)nn2)C(=O)C2CCCC1N2S(=O)(=O)c1cc(Cl)cc(Cl)c1 (stereo not drawn) [a2i] | 8.7 | 140 ± 30 | 960 ± 120 | 0.1 | 180 | 330 ± 40 | 290 ± 30 | 1.1 | 790
2 | Cc1sc2c(c1C)C(c1ccc(Cl)cc1)=NC(CC(=O)N1CCC(CN3CCC(n4cc(COCC5CN(Cc6ccccn6)C(=O)C6CCCC5N6S(=O)(=O)c5cc(Cl)cc(Cl)c5)nn4)CC3)CC1)c1nnc(C)n1-2 (stereo not drawn) [a7d] | 2.3 | 700 ± 100 | 660 ± 90 | 1 | 209 | 680 ± 70 | 310 ± 50 | 2.2 | 1110
3 | Cc1sc2c(c1C)C(c1ccc(C#CCNC(=O)COCCn3cc(COCC4CN(Cc5ccccn5)C(=O)C5CCCC4N5S(=O)(=O)c4cc(Cl)cc(Cl)c4)nn3)cc1)=NC(CC(=O)OC(C)(C)C)c1nnc(C)n1-2 (stereo not drawn) [b3d] | 1 | 110 ± 30 | – | 0.1 | 15 | 68 ± 9 | 200 ± 30 | 0.3 | 266
4 | C=CC1CN(Cc2cn(CCOCCNC(=O)CC3N=C(c4ccc(Cl)cc4)c4c(sc(C)c4C)-n4c(C)nnc43)nn2)C(=O)C2CCCC1N2S(=O)(=O)c1cc(Cl)cc(Cl)c1 (stereo not drawn) [a1i] | 10 | 910 ± 160 | – | 0.3 | 200 | – | – | 0.5 | 560
5 | Cc1sc2c(c1C)C(c1ccc(Cl)cc1)=NC(CC(=O)N1CCN(CCCCn3cc(COCC4CN(Cc5ccccn5)C(=O)C5CCCC4N5S(=O)(=O)c4cc(Cl)cc(Cl)c4)nn3)CC1)c1nnc(C)n1-2 (stereo not drawn) [a6d] | 0.9 | – | 800 ± 200 | 1.8 | 141 | 600 ± 80 | 400 ± 50 | 1.5 | 787
6 | Cc1sc2c(c1C)C(c1ccc(Cl)cc1)=NC(CC(=O)NCCOCCn1cc(COC(C)C3CN(Cc4ccccn4)C(=O)C4CCCC3N4S(=O)(=O)c3cc(Cl)cc(Cl)c3)nn1)c1nnc(C)n1-2 (stereo not drawn) [a1e] | 8.9 | 33 ± 9 | 60 ± 10 | 0.6 | 103 | 70 ± 10 | 48 ± 7 | 1.5 | 390
7 | Cc1sc2c(c1C)C(c1ccc(Cl)cc1)=NC(CC(=O)NCCOCCn1cc(C3CN(Cc4ccccn4)C(=O)C4CCCC3N4S(=O)(=O)c3cc(Cl)cc(Cl)c3)nn1)c1nnc(C)n1-2 (stereo not drawn) [a1c] | 1 | 590 ± 110 | – | 0.4 | 22 | – | – | 0.3 | 940
8 | Cc1sc2c(c1C)C(c1ccc(Cl)cc1)=NC(CC(=O)N1CC(CN3CCC(n4cc(COCC5CN(Cc6ccccn6)C(=O)C6CCCC5N6S(=O)(=O)c5cc(Cl)cc(Cl)c5)nn4)CC3)C1)c1nnc(C)n1-2 (stereo not drawn) [a11d] | 0.8 | – | 700 ± 100 | 1.8 | 165 | 480 ± 70 | 40 ± 10 | 12 | 687
9 | Cc1sc2c(c1C)C(c1ccc(Cl)cc1)=NC(CC(=O)N1CCC(N3CCC(n4cc(C5CN(Cc6ccccn6)C(=O)C6CCCC5N6S(=O)(=O)c5cc(Cl)cc(Cl)c5)nn4)CC3)CC1)c1nnc(C)n1-2 (stereo not drawn) [a9c] | 2.2 | 310 ± 40 | 650 ± 90 | 0.5 | 107 | 280 ± 40 | 180 ± 20 | 1.6 | 155
